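Values below derive from 48-hour exposures of cells grown in 96-well plates, with endpoints linearly interpolated between the two concentrations bracketing the appropriate inhibition level. TGI marks complete inhibition of growth.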
Assays:
Test in all cases: inhibition of tumour cell growth, NCI panel, 48 h
SNB-75 CNS = test system: SNB-75 CNS
TK-10 renal = test system: TK-10 renal
HCC-2998 colon = test system: HCC-2998 colon
SK-MEL-5 melanoma = test system: SK-MEL-5 melanoma
UACC-257 melanoma = test system: UACC-257 melanoma
ACHN renal = test system: ACHN renal
HL-60(TB) leukemia = test system: HL-60(TB) leukemia
MOLT-4 leukemia = test system: MOLT-4 leukemia
COLO 205 colon = test system: COLO 205 colon
NCI-H23 lung = test system: NCI-H23 lung
SK-MEL-2 melanoma = test system: SK-MEL-2 melanoma
SN12C renal = test system: SN12C renal
NCI-H460 lung = test system: NCI-H460 lung
MALME-3M melanoma = test system: MALME-3M melanoma
OVCAR-8 ovarian = test system: OVCAR-8 ovarian
OVCAR-3 ovarian = test system: OVCAR-3 ovarian
KM12 colon = test system: KM12 colon
EKVX NSCLC = test system: EKVX NSCLC
RXF-631 renal = test system: RXF-631 renal
DMS 273 small cell lung = test system: DMS 273 small cell lung
CAKI-1 renal = test system: CAKI-1 renal
K-562 leukemia = test system: K-562 leukemia
IGROV1 ovarian = test system: IGROV1 ovarian
SNB-19 CNS = test system: SNB-19 CNS
DLD-1 colon = test system: DLD-1 colon
M14 melanoma = test system: M14 melanoma
XF 498 CNS = test system: XF 498 CNS
UO-31 renal = test system: UO-31 renal
HT29 colon = test system: HT29 colon
U251 CNS = test system: U251 CNS
UACC-62 melanoma = test system: UACC-62 melanoma
NCI-H226 lung = test system: NCI-H226 lung
OVCAR-4 ovarian = test system: OVCAR-4 ovarian
SK-MEL-28 melanoma = test system: SK-MEL-28 melanoma
RPMI-8226 leukemia = test system: RPMI-8226 leukemia
NCI-H522 lung = test system: NCI-H522 lung
KM20L2 colon = test system: KM20L2 colon
A498 renal = test system: A498 renal
LXFL 529 NSCLC = test system: LXFL 529 NSCLC
786-0 renal = test system: 786-0 renal
CCRF-CEM leukemia = test system: CCRF-CEM leukemia
A549 NSCLC = test system: A549 NSCLC
SF-295 CNS = test system: SF-295 CNS
OVCAR-5 ovarian = test system: OVCAR-5 ovarian
SW-620 colon = test system: SW-620 colon
SK-OV-3 ovarian = test system: SK-OV-3 ovarian
HOP-62 NSCLC = test system: HOP-62 NSCLC
DMS 114 small cell lung = test system: DMS 114 small cell lung
HCT-15 colon = test system: HCT-15 colon
SF-268 CNS = test system: SF-268 CNS
M19-MEL melanoma = test system: M19-MEL melanoma
HOP-92 NSCLC = test system: HOP-92 NSCLC

## CC1SC2=NC3=C(c4ccccc4C3=O)C(c3ccc(Cl)cc3)N2C1=O (configuration not stated)
SNB-75 CNS
  TGI: > 100 µM
TK-10 renal
  TGI: > 100 µM
HCC-2998 colon
  TGI: > 100 µM
SK-MEL-5 melanoma
  TGI: > 100 µM
UACC-257 melanoma
  TGI: > 100 µM
ACHN renal
  TGI: > 100 µM
HL-60(TB) leukemia
  TGI: > 100 µM
MOLT-4 leukemia
  TGI: > 100 µM
COLO 205 colon
  TGI: > 100 µM
NCI-H23 lung
  TGI: > 100 µM
SK-MEL-2 melanoma
  TGI: > 100 µM
SN12C renal
  TGI: > 100 µM
NCI-H460 lung
  TGI: > 100 µM
MALME-3M melanoma
  TGI: > 100 µM
OVCAR-8 ovarian
  TGI: > 100 µM
OVCAR-3 ovarian
  TGI: > 100 µM
KM12 colon
  TGI: > 100 µM
EKVX NSCLC
  TGI: > 100 µM
RXF-631 renal
  TGI: > 100 µM
DMS 273 small cell lung
  TGI: > 100 µM
CAKI-1 renal
  TGI: > 100 µM
K-562 leukemia
  TGI: > 100 µM
IGROV1 ovarian
  TGI: > 100 µM
SNB-19 CNS
  TGI: > 100 µM
DLD-1 colon
  TGI: > 100 µM
M14 melanoma
  TGI: > 100 µM
XF 498 CNS
  TGI: > 100 µM
UO-31 renal
  TGI: > 100 µM
HT29 colon
  TGI: > 100 µM
U251 CNS
  TGI: > 100 µM
UACC-62 melanoma
  TGI: > 100 µM
NCI-H226 lung
  TGI: > 100 µM
OVCAR-4 ovarian
  TGI: > 100 µM
SK-MEL-28 melanoma
  TGI: > 100 µM
RPMI-8226 leukemia
  TGI: > 100 µM
NCI-H522 lung
  TGI: 87.8 µM
KM20L2 colon
  TGI: > 100 µM
A498 renal
  TGI: > 100 µM
LXFL 529 NSCLC
  TGI: > 100 µM
786-0 renal
  TGI: > 100 µM
CCRF-CEM leukemia
  TGI: > 100 µM
A549 NSCLC
  TGI: > 100 µM
SF-295 CNS
  TGI: > 100 µM
OVCAR-5 ovarian
  TGI: > 100 µM
SW-620 colon
  TGI: > 100 µM
SK-OV-3 ovarian
  TGI: > 100 µM
HOP-62 NSCLC
  TGI: > 100 µM
DMS 114 small cell lung
  TGI: > 100 µM
HCT-15 colon
  TGI: > 100 µM
SF-268 CNS
  TGI: > 100 µM
M19-MEL melanoma
  TGI: > 100 µM
HOP-92 NSCLC
  TGI: > 100 µM

Reference: PubChem BioAssay (NCI)
